This assay can be described thus: Inhibition of lipoprotein(a) assembly from Apo(a) and LDL particle in human HepG2 and HEK293 combined conditioned media incubated for 2 hrs by sandwich ELISA. On the technique in general: ELISA stands for enzyme-linked immunosorbent assay.

By IC50 is commonly meant the concentration that inhibits the measured activity by half. Turning to `O=C(O)[C@@H](Cc1cccc(CNCc2cccc(C[C@H](C(=O)O)[C@H]3CCNC3)c2)c1)[C@H]1CCNC1`, the IC50 amounted to 0.934 nM. On to `CC(Cc1cccc(CN(Cc2cccc(CC(C)(C(=O)O)[C@H]3CCNC3)c2)Cc2cccc(CC(C)(C(=O)O)[C@H]3CCNC3)c2)c1)(C(=O)O)[C@H]1CCNC1` (some centres not stated), for which the IC50 is 0.108 nM.

As to `COc1cc(F)cc(CN(Cc2cccc(C[C@H](C(=O)O)[C@H]3CCNC3)c2)Cc2cccc(C[C@H](C(=O)O)[C@H]3CCNC3)c2)c1`, the IC50 is 0.17 nM.

For `O=C(O)[C@@H](Cc1cccc(COc2cccc(C[C@H](C(=O)O)[C@H]3CCNC3)c2)c1)[C@H]1CCNC1`, the IC50 was 0.359 nM.

On to `O=C(O)[C@@H](Cc1cccc(Oc2cccc(C[C@H](C(=O)O)[C@H]3CCNC3)c2)c1)[C@H]1CCNC1`, for which the 50% inhibitory concentration (IC50) came to 0.372 nM. Under `O=C(O)[C@@H](Cc1cccc(Nc2cccc(C[C@H](C(=O)O)[C@H]3CCNC3)c2)c1)[C@H]1CCNC1` stands 0.348 nM; under `O=C(O)[C@@H](Cc1cccc([S+]([O-])c2cccc(C[C@H](C(=O)O)[C@H]3CCNC3)c2)c1)[C@H]1CCNC1`, 0.396 nM. The figure for `O=C(O)[C@@H](Cc1cccc(NS(=O)(=O)Nc2cccc(C[C@H](C(=O)O)[C@H]3CCNC3)c2)c1)[C@H]1CCNC1` is 0.563 nM; for `O=C(O)[C@@H](Cc1cccc(Sc2cccc(C[C@H](C(=O)O)[C@H]3CCNC3)c2)c1)[C@H]1CCNC1` it is 0.36 nM; for `O=C(O)[C@@H](Cc1cccc(OCCOc2cccc(C[C@H](C(=O)O)[C@H]3CCNC3)c2)c1)[C@H]1CCNC1` it is 0.288 nM. The figure for `O=C(O)[C@@H](Cc1cccc(S(=O)(=O)c2cccc(C[C@H](C(=O)O)[C@H]3CCNC3)c2)c1)[C@H]1CCNC1` is 0.235 nM; for `O=C(O)[C@@H](Cc1cccc(CN(Cc2cccc(C[C@H](C(=O)O)[C@H]3CCNC3)c2)Cc2cccc(C[C@H](C(=O)O)[C@H]3CCNC3)c2)c1)[C@H]1CCNC1` it is 0.0963 nM.

Values taken from ChEMBL document CHEMBL4706720, “Pyrrolidine Compounds as Potential Lipid-Lowering Therapeutic in Cardiovascular Disease” (ACS Med Chem Lett, 2021).
